Assays:
Melanocortin receptor 5 = Melanocortin receptor 5 (Homo sapiens, UniProt P33032); experiment: Tested for its binding affinity towards human recombinant Melanocortin 5 receptor by using radioligand binding assay
[1] = biological target: T1, Melanocyte-stimulating hormone receptor (Homo sapiens, UniProt Q01726); experiment: Tested for its binding affinity towards human recombinant Melanocortin 1 receptor by using radioligand binding assay
Melanocortin receptor 3 [2] = biological target: T2, Melanocortin receptor 3 (Homo sapiens, UniProt P41968); experiment: Tested for its binding affinity towards human recombinant Melanocortin 3 receptor by using radioligand binding assay
Melanocortin receptor 4 = Melanocortin receptor 4 (Homo sapiens, UniProt P32245); experiment: Tested for its binding affinity towards human recombinant Melanocortin 4 receptor by using radioligand binding assay
[3] = biological target: T1, Melanocyte-stimulating hormone receptor; experiment: Tested for its binding affinity towards human recombinant Melanocortin 1 receptor by using radioligand binding assay; nb = no binding up to 0.5 mM
Melanocortin receptor 3 [4] = biological target: T2, Melanocortin receptor 3; experiment: Tested for its binding affinity towards human recombinant Melanocortin 3 receptor by using radioligand binding assay; nb = no binding up to 0.5 mM

T2 sequence (P41968 whole entry): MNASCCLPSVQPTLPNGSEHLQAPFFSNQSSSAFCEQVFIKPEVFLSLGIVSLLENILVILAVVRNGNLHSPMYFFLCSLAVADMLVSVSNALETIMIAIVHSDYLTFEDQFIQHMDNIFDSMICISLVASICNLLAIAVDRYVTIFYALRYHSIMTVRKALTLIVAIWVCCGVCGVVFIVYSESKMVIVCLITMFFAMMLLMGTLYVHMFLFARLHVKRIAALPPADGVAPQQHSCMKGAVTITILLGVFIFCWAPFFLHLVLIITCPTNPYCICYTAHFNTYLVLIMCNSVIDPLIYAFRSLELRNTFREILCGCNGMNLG
Chain of Melanocortin receptor 5 (P33032 whole entry): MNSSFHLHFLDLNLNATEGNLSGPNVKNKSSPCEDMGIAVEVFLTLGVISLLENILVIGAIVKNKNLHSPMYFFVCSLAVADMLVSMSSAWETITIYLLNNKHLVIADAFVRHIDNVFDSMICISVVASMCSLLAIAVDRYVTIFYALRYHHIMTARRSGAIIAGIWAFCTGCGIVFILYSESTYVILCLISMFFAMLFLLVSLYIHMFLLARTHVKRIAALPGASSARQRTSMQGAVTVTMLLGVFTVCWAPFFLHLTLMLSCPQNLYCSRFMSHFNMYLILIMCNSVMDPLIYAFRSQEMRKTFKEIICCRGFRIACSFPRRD
T1 sequence (Q01726 whole entry): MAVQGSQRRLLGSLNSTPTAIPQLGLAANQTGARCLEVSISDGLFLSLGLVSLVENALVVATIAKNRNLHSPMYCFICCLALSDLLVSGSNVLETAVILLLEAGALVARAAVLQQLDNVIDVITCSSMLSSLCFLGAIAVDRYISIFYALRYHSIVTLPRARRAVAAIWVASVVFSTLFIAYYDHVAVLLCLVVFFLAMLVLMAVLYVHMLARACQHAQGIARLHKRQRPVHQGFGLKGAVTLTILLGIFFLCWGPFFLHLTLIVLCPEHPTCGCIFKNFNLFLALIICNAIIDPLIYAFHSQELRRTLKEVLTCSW
Chain of Melanocortin receptor 4 (P32245 whole entry): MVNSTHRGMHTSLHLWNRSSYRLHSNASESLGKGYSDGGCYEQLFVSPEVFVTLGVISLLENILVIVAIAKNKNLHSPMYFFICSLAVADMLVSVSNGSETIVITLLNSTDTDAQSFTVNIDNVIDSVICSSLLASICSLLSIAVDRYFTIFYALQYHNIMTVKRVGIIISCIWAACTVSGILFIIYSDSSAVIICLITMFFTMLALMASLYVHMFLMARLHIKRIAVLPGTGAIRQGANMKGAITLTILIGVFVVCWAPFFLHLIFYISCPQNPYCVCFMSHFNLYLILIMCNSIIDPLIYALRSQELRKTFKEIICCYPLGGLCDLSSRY

Structure (SMILES)	Ki (Melanocortin receptor 5)	Ki [1]	Ki (Melanocortin receptor 3 [2])	Ki (Melanocortin receptor 4)	Ki [3]	Ki (Melanocortin receptor 3 [4])
NC(N)=NCCC[C@H](N)C(=O)N(Cc1cccc2ccccc12)Cc1c[nH]c2ccccc12	12 µM	11 µM	52 µM	70 µM		
NCCNC(=O)[C@H](CNCc1ccc2ccccc2c1)NCc1ccc2ccccc2c1	28 µM	27 µM	58 µM	44 µM		
c1ccc2c(CCNCc3c[nH]c4ccccc34)c[nH]c2c1	18 µM	32 µM	86 µM	161 µM		
N=C(N)NCCCNCc1ccc2ccccc2c1	36 µM	19 µM	31 µM	56 µM		
NCCCNC(=O)[C@H](CNCc1c[nH]c2ccccc12)NCc1ccc2ccccc2c1	36 µM	0.7 µM	56 µM	27 µM		
c1ccc2c(CN3CCNCC3)c[nH]c2c1	256 µM	> 1000 µM	> 1000 µM	> 1000 µM		
c1ccc2cc(CNCCc3c[nH]c4ccccc34)ccc2c1	14 µM	16 µM	59 µM	118 µM		
c1ccc2cc(CNCc3cccc4ccccc34)ccc2c1	100 µM	> 1000 µM	> 1000 µM	> 1000 µM		
NCCCNCc1ccc2ccccc2c1	43 µM	> 1000 µM	57 µM	94 µM		
c1ccc2c(CNCc3c[nH]c4ccccc34)cccc2c1	38 µM	26 µM	214 µM	161 µM		
N[C@H](CCC(=O)O)C(=O)N(Cc1ccc2ccccc2c1)Cc1cccc2ccccc12	45 µM	46 µM	294 µM	89 µM		
NCCCCNC(=O)[C@H](CCCCNCc1c[nH]c2ccccc12)NCc1ccc2ccccc2c1	173 µM	9.8 µM	167 µM	24 µM		
NCCCNCc1c[nH]c2ccccc12	150 µM	28 µM	145 µM	104 µM		
N=C(N)N1CCN(Cc2ccc3ccccc3c2)CC1	74 µM	> 1000 µM	> 1000 µM	68 µM		
N=C(N)N1CCN(Cc2c[nH]c3ccccc23)CC1	> 1000 µM	> 1000 µM	> 1000 µM	> 1000 µM		
N=C(N)NCCCNCc1c[nH]c2ccccc12	47 µM	12 µM	45 µM	107 µM		
NCCNCc1ccc2ccccc2c1	83 µM			8.8 µM	Not Active	Not Active
c1ccc2cc(CN3CCNCC3)ccc2c1	141 µM	> 1000 µM	> 1000 µM	> 1000 µM		
NC(N)=NCCCC(N)C(=O)N(CCc1c[nH]c2ccccc12)Cc1ccc2ccccc2c1 (single isomer, unassigned)	10 µM	1.5 µM	19 µM	15 µM		
NC(N)=NCCC[C@H](N)C(=O)N(Cc1ccc2ccccc2c1)Cc1cccc2ccccc12 (stereo in doubt; 11b)	2.5 µM	0.69 µM	9 µM	5.4 µM		
NC(N)=NCCC[C@H](N)C(=O)N(Cc1ccc2ccccc2c1)Cc1cccc2ccccc12 (stereo in doubt; 11c)	2.7 µM	1.2 µM	18 µM	2.1 µM		
